Patent publication US7507739B2, “6-[(substituted)phenyl]triazolopyrimidines as anticancer agents” (Wyeth, priority 2003, dated 2009)

System: HeLa cells
Assay: Cell cycle analysis with HeLa cells
Assay type: cell-based, human
Details: 18 hr
Procedure: HeLa cells are harvested by trypsinization, washed, counted and distributed to wells of 12-well plates at 125,000 cells per well in 2 mL medium. Cells are cultured overnight. […] Cells are continued in culture for 18 hr after compound addition, then cells in each well are harvested (taking care to recover both adherent and non-adherent cells) and processed using the CycleTEST PLUS kit (Becton Dickinson Immunocytometry Systems, San Jose, Calif.). Flow cytometry is done with a FACSort instrument (Becton Dickinson).
This procedure measures the percentages of cells in a population that are in the G1, S, and G2/M phases of the cell cycle. It utilizes staining of cell nuclei with propidium iodide and analysis by flow cytometry.

Structure (SMILES): C[C@H](Nc1c(-c2c(F)cc(OCCCN(C)C)cc2F)c(Cl)nc2ncnn12)C(F)(F)F.Cl [Example 1a, 5-chloro-6-{4-[3-(dimethylamino)propoxy]-2,6-difluorophenyl}-N-[(1S)-2,2,2-trifluoro-1-methylethyl][1,2,4]triazolo[1,5-a]pyrimidin-7-amine hydrogen chloride Salt]
- Percent in Cell Cycle Phase >4N (20 nM): 2%
- Percent in Cell Cycle Phase Apop (20 nM): 13%
- Percent in Cell Cycle Phase G1 (20 nM): 54%
- Percent in Cell Cycle Phase G2/M (20 nM): 14%
- Percent in Cell Cycle Phase S (20 nM): 18%
- Percent in Cell Cycle Phase >4N (30 nM): 1%
- Percent in Cell Cycle Phase Apop (30 nM): 38%
- Percent in Cell Cycle Phase G1 (30 nM): 35%
- Percent in Cell Cycle Phase G2/M (30 nM): 14%
- Percent in Cell Cycle Phase S (30 nM): 12%
- Percent in Cell Cycle Phase >4N (40 nM): 1%
- Percent in Cell Cycle Phase Apop (40 nM): 71%
- Percent in Cell Cycle Phase G1 (40 nM): 7%
- Percent in Cell Cycle Phase G2/M (40 nM): 13%
- Percent in Cell Cycle Phase S (40 nM): 8%
- Percent in Cell Cycle Phase Apop (40 nM, listed as example 1a): about 70%
- Percent in Cell Cycle Phase G2/M (40 nM, listed as example 1a): no increase
- Percent in Cell Cycle Phase >4N (50 nM): 2%
- Percent in Cell Cycle Phase Apop (50 nM): 63%
- Percent in Cell Cycle Phase G1 (50 nM): 6%
- Percent in Cell Cycle Phase G2/M (50 nM): 20%
- Percent in Cell Cycle Phase S (50 nM): 9%
- Percent in Cell Cycle Phase >4N (60 nM): 3%
- Percent in Cell Cycle Phase Apop (60 nM): 52%
- Percent in Cell Cycle Phase G1 (60 nM): 5%
- Percent in Cell Cycle Phase G2/M (60 nM): 32%
- Percent in Cell Cycle Phase S (60 nM): 10%
- Percent in Cell Cycle Phase >4N (70 nM): 4%
- Percent in Cell Cycle Phase Apop (70 nM): 26%
- Percent in Cell Cycle Phase G1 (70 nM): 3%
- Percent in Cell Cycle Phase G2/M (70 nM): 57%
- Percent in Cell Cycle Phase S (70 nM): 9%
- Percent in Cell Cycle Phase >4N (80 nM): 5%
- Percent in Cell Cycle Phase Apop (80 nM): 24%
- Percent in Cell Cycle Phase G1 (80 nM): 4%
- Percent in Cell Cycle Phase G2/M (80 nM): 58%
- Percent in Cell Cycle Phase S (80 nM): 9%
- Percent in Cell Cycle Phase >4N (90 nM): 6%
- Percent in Cell Cycle Phase Apop (90 nM): 22%
- Percent in Cell Cycle Phase G1 (90 nM): 5%
- Percent in Cell Cycle Phase G2/M (90 nM): 58%
- Percent in Cell Cycle Phase S (90 nM): 10%
- Percent in Cell Cycle Phase >4N (100 nM): 5%
- Percent in Cell Cycle Phase Apop (100 nM): 24%
- Percent in Cell Cycle Phase G1 (100 nM): 4%
- Percent in Cell Cycle Phase G2/M (100 nM): 58%
- Percent in Cell Cycle Phase S (100 nM): 10%
- Percent in Cell Cycle Phase >4N (110 nM): 5%
- Percent in Cell Cycle Phase Apop (110 nM): 24%
- Percent in Cell Cycle Phase G1 (110 nM): 6%
- Percent in Cell Cycle Phase G2/M (110 nM): 53%
- Percent in Cell Cycle Phase S (110 nM): 13%
- Percent in Cell Cycle Phase >4N (120 nM): 5%
- Percent in Cell Cycle Phase Apop (120 nM): 28%
- Percent in Cell Cycle Phase G1 (120 nM): 6%
- Percent in Cell Cycle Phase G2/M (120 nM): 48%
- Percent in Cell Cycle Phase S (120 nM): 14%
